Results reported in ChEMBL document CHEMBL3044590, “Nematicidal activity of plant essential oils and components from coriander (Coriandrum sativum), Oriental sweetgum (Liquidambar orientalis), and valerian (Valeriana wallichii) essential oils against pine wood nematode (Bursaphelenchus xylophilus)” (2008).

Key:
Format in all cases: functional
[1] = tested on: Bursaphelenchus xylophilus; test: Nematicidal activity against Bursaphelenchus xylophilus assessed as nematode mortality at 0.2 mg/mL measured 24 hr post dose by microscopy
[2] = tested on: Bursaphelenchus xylophilus; test: Nematicidal activity against Bursaphelenchus xylophilus assessed as nematode mortality at 0.6 mg/mL measured 24 hr post dose by microscopy
[3] = tested on: Bursaphelenchus xylophilus; test: Nematicidal activity against Bursaphelenchus xylophilus assessed as nematode mortality at 0.4 mg/mL measured 24 hr post dose by microscopy
[4] = tested on: Bursaphelenchus xylophilus; test: Nematicidal activity against Bursaphelenchus xylophilus assessed as nematode mortality at 0.8 mg/mL measured 24 hr post dose by microscopy
[5] = tested on: Bursaphelenchus xylophilus; test: Nematicidal activity against Bursaphelenchus xylophilus assessed as nematode mortality at 1 mg/mL measured 24 hr post dose by microscopy
[6] = tested on: Bursaphelenchus xylophilus; test: Nematicidal activity against Bursaphelenchus xylophilus assessed as nematode mortality at 2 mg/mL measured 24 hr post dose by microscopy

Row | SMILES | mortality at 200 µg/mL [1] [%] | mortality at 600 µg/mL [2] [%] | mortality at 400 µg/mL [3] [%] | mortality at 800 µg/mL [4] [%] | mortality at 1000 µg/mL [5] [%] | mortality at 2000 µg/mL [6] [%]
1 | CCCCCCC/C=C/CO | 98 | 100 | 100 | 100 | 100 | 100
2 | CC(=O)c1ccccc1 [ACETOPHENONE] |  |  |  |  |  | 5.3
3 | O=Cc1ccccc1 [BENZALDEHYDE] | 1.9 | 45.6 | 7.4 | 77.5 | 94.1 | 100
4 | OCc1ccccc1 [BENZYL ALCOHOL] |  |  |  |  |  | 3.8
5 | OC/C=C/c1ccccc1 [CINNAMIC ALCOHOL] | 11.3 | 99.5 | 57.6 | 100 | 100 | 100
6 | C/C=C\c1cc(OC)c(OC)cc1OC [CIS-ASARONE] | 15.8 | 96.2 | 47.9 | 100 | 100 | 100
7 | CCCCCCCCCC=O [DECANAL] | 3 | 34.2 | 25.1 | 97.3 | 100 | 100
8 | CCCCCCCCCCO [DECANOL] | 100 | 100 | 100 | 100 | 100 | 100
9 | CCCCCCCCCCCC=O [DODECANAL] | 11.5 | 37.6 | 20.8 | 77.8 | 86.3 | 100
10 | CC(=O)OC/C=C(\C)CCC=C(C)C [GERANYL ACETATE] |  |  |  |  |  | 7
11 | CCCCCCC=O [HEPTANAL] |  |  |  |  |  | 40.8
12 | OCCCc1ccccc1 [HYDROCINNAMYL ALCOHOL] |  |  |  |  |  | 17.2
13 | CCCCCCCCC=O [NONANAL] | 1.1 | 59.5 | 3.6 | 83.4 | 95.8 | 100
14 | CCCCCCCCC [NONANE] |  |  |  |  |  | 1.7
15 | C=C/C(C)=C/CC=C(C)C [OCIMENE] |  |  |  |  |  | 16.2
16 | CCCCCCCC=O [OCTANAL] | 3.5 | 55.2 | 31.2 | 79.3 | 89 | 100
17 | CC(O)c1ccccc1 (stereo not given) [PHENYL ETHANOL] |  |  |  |  |  | 3
18 | C=Cc1ccccc1 [STYRENE] |  |  |  |  |  | 6.7
19 | C/C=C/c1cc(OC)c(OC)cc1OC [TRANS-ASARONE] |  |  |  |  |  | 12.1
20 | CCCCCCCCCCC=O [UNDECANAL] | 17.8 | 64.1 | 34.1 | 90.5 | 98.7 | 100
